Columns and labels:
[1] = tested on: BUD-8 human skin fibroblasts; test: Fibroblast assay: proliferation of BUD-8 skin cell fibroblasts; format: cell-based
Protocol: The human skin cell fibroblast line, BUD-8 was obtained prior to each assay from the American Type Culture Collection. This is a fibroblast-like cell line which was originally derived from the normal skin of a person.
BUD-8 cell cultures were expanded for use in 25 cm^2 flasks at 37° C. in an atmosphere of 5% CO2 in air. At approximately 4-5 five day intervals, or when confluence was reached, the cells were passaged. This was accomplished by detaching the cells with a Teflon scraper, washing and reseeding the cells at a lower density into fresh tissue culture flasks.
(§1) The effect of the compound of the present invention on the proliferative capacity of human BUD-8 skin fibroblasts was measured with the use of a ^3 H-thymidine incorporation assay using culture conditions which were similar to those used for a Con-A blastogenesis assay, described previously. Cultured skin cells were detached from the surface of tissue culture flasks mechanically with a Teflon scraper. The cells were washed, resuspended in incubation medium and the viabilities were determined. These cells were then plated in triplicate at a density of 2×10^3 cells/0.1 ml/microtiter well for the proliferation assay and a density of 1×10^4 cells/0.1 ml/microtiter well for the assays to quantitate PGE2 and LTB4. To these cells was added incubation medium containing indomethacin to inhibit prostaglandin production, or nordihydroguaiaretic acid (NDGA) to inhibit leukotriene production (positive controls).
After 3 days of culture, 1 uCi ^3 H-thymidine was added in a 50 ul volume to each culture well of the microtiter plates. Eighteen hours later, each of the BUD-8 cultures was examined morphologically for evidence of compound-induced toxicity such as cell rounding or granularity. The thymidine-pulsed cells were then precipitated and the amount of ^3 H-thymidine incorporated was counted in a liquid scintillation counter.
The concentrations of the compounds of the invention which were used in these assays were:
The incubation medium used for culturing the BUD-8 cells was RPMI-1640 medium containing 10% fetal bovine serum, 100 ug/ml streptomycin, 100 U/ml penicillin, 0.2M Hepes buffer solution, 5×10^-5 M 2-mercaptoethanol and 2 mM glutamine.

[2] = tested on: LTB4 production by BUD-8 skin cell fibroblasts; test: LTB4 production by BUD-8 skin cell fibroblasts (radioimmunoassay); format: cell-based, human
Protocol: as §1
(§2) After 18 hours of culture, samples of the BUD-8 skin cell supernatants were collected from one set of microtiter plates and frozen until assayed for PGE2 or for LTB4 content using the radioimmunoassays described below.
Levels of LTB4 in aliquots of BUD-8 skin cell cultures supernatants were quantitated by radioimmunoassay (New England Nuclear). Briefly, into each polyproplyene tube were mixed 0.1 ml anti-LTB4, 0.1. ml ^3 H-LTB4 and 0.1 ml LTB4 standard or LTB4 containing sample. The BUD-8 skin cell culture supernatants were used directly in the radioimmunoassay. Tubes were refrigerated overnight. A charcoal solution (0.5 ml of 0.5% charcoal Norit A) was added and each tube was centrifuged. The radioactivity in the supernatant was then counted in a liquid scintillation counter.

[3] = tested on: PGE2 production by BUD-8 skin cell fibroblasts; test: PGE2 production by BUD-8 skin cell fibroblasts (radioimmunoassay); format: cell-based, human
Protocol: as §1, §2
A radioinmunoassay (New England Nuclear) was used to quantitate PGE2 levels in BUD-8 skin cell culture supernatants. Briefly, into each polypropylene tube were mixed 0.1 ml anti-PGE2, 0.1 ml ^125 1-PGE2 and 0.1 ml PGE2 standard or PGE2 containing sample. The BUD-8 skin culture supernatants were diluted 1:2 prior to addition to the radioimmunoassay. Tubes were refrigerated overnight. A polyethylene glycol solution (16%, 6,000 m.w.) was then added to precipitate immune complexes and the radioactivity in the precipitate was counted in a gamma counter.

CC1(C)OC2OC3C(O)COC3(O)C2O1 [IV, (3S) 1,2-O-isopropylidene-α-D-ribo-hexos-3-ulose-1,4:3,6-difuranose]
^3 H-Thymidine uptake by BUD-8 skin cells ([1]; 1 ug/ml): 3,607 ± 87 cpm
^3 H-Thymidine uptake by BUD-8 skin cells ([1]; 10 ug/ml): 4,077 ± 374 cpm
^3 H-Thymidine uptake by BUD-8 skin cells ([1]; 25 ug/ml): 3,791 ± 451 cpm
^3 H-Thymidine uptake by BUD-8 skin cells ([1]; 100 ug/ml): 4,032 ± 3 cpm
^3 H-Thymidine uptake by BUD-8 skin cells ([1]; 300 ug/ml): 2,882 ± 387 cpm
^3 H-Thymidine uptake by BUD-8 skin cells ([1]; 750 ug/ml): 2,658 ± 247 cpm
inhibition at 1 µg/mL ([1]; Homo sapiens, Skin fibroblast, 1 ug/ml, read-out: % Effect on BUD-8 proliferation): 51%
inhibition at 10 µg/mL ([1]; Homo sapiens, Skin fibroblast, 10 ug/ml, read-out: % Effect on BUD-8 proliferation): 44%
inhibition at 25 µg/mL ([1]; Homo sapiens, Skin fibroblast, 25 ug/ml, read-out: % Effect on BUD-8 proliferation): 48%
inhibition at 100 µg/mL ([1]; Homo sapiens, Skin fibroblast, 100 ug/ml, read-out: % Effect on BUD-8 proliferation): 45%
inhibition at 300 µg/mL ([1]; Homo sapiens, Skin fibroblast, 300 ug/ml, read-out: % Effect on BUD-8 proliferation): 61%
inhibition at 750 µg/mL ([1]; Homo sapiens, Skin fibroblast, 750 ug/ml, read-out: % Effect on BUD-8 proliferation): 64%
effect on LTB4 production in words [2]: significantly decrease of levels of both pro-inflammatory mediators are seen at several non-toxic doses
LTB4 in supernatant (Table XXI) ([2]; 1 ug/ml): 36.4 ± 5.2 pg LTB4 100 ul supernatant
calculated LTB4 produced/10^5 BUD-8 cells ([2]; 1 ug/ml): 1,621 pg per 10^5 cells
LTB4 in supernatant (Table XXI) ([2]; 10 ug/ml): 19.9 ± 3.8 pg LTB4 100 ul supernatant
LTB4 in supernatant (Table XXI) ([2]; 25 ug/ml): 17.7 ± 3.8 pg LTB4 100 ul supernatant
calculated LTB4 produced/10^5 BUD-8 cells ([2]; 25 ug/ml): 683 pg per 10^5 cells
LTB4 in supernatant (Table XXI) ([2]; 100 ug/ml): 17.3 ± 0.9 pg LTB4 100 ul supernatant
calculated LTB4 produced/10^5 BUD-8 cells ([2]; 100 ug/ml): 665 pg per 10^5 cells
LTB4 in supernatant (Table XXI) ([2]; 300 ug/ml): 25.7 ± 5.0 pg LTB4 100 ul supernatant
calculated LTB4 produced/10^5 BUD-8 cells ([2]; 300 ug/ml): 1,083 pg per 10^5 cells
LTB4 in supernatant (Table XXI) ([2]; 750 ug/ml): 23.5 ± 0.2 pg LTB4 100 ul supernatant
calculated LTB4 produced/10^5 BUD-8 cells ([2]; 750 ug/ml): 973 pg per 10^5 cells
inhibition at 1 µg/mL ([2]; Homo sapiens, Fibroblast, 18 h, 1 ug/ml, read-out: % Effect on LTB4 production): -2%
inhibition at 10 µg/mL ([2]; Homo sapiens, Fibroblast, 18 h, 10 ug/ml, read-out: % Effect on LTB4 production): 45%
inhibition at 25 µg/mL ([2]; Homo sapiens, Fibroblast, 18 h, 25 ug/ml, read-out: % Effect on LTB4 production): 51%
inhibition at 100 µg/mL ([2]; Homo sapiens, Fibroblast, 18 h, 100 ug/ml, read-out: % Effect on LTB4 production): 52%
inhibition at 300 µg/mL ([2]; Homo sapiens, Fibroblast, 18 h, 300 ug/ml, read-out: % Effect on LTB4 production): 28%
inhibition at 750 µg/mL ([2]; Homo sapiens, Fibroblast, 18 h, 750 ug/ml, read-out: % Effect on LTB4 production): 35%
effect on PGE2 production in words [3]: significantly decrease of levels of both pro-inflammatory mediators are seen at several non-toxic doses
PGE2 in supernatant ([3]; 1 ug/ml): 7.1 ± 1.0 pg PGE2 /50 ul supernatant
calculated PGE2 produced/10^5 BUD-8 cells ([3]; 1 ug/ml): 336 pg per 10^5 cells
PGE2 in supernatant ([3]; 10 ug/ml): 7.5 ± 0.9 pg PGE2 /50 ul supernatant
calculated PGE2 produced/10^5 BUD-8 cells ([3]; 25 ug/ml): 366 pg per 10^5 cells
PGE2 in supernatant ([3]; 100 ug/ml): 13.6 ± 4.4 pg PGE2 /50 ul supernatant
calculated PGE2 produced/10^5 BUD-8 cells ([3]; 100 ug/ml): 850 pg per 10^5 cells
PGE2 in supernatant ([3]; 300 ug/ml): 23.7 ± 1.5 pg PGE2 /50 ul supernatant
calculated PGE2 produced/10^5 BUD-8 cells ([3]; 300 ug/ml): 1654 pg per 10^5 cells
PGE2 in supernatant ([3]; 750 ug/ml): 4.0 ± 0.5 pg PGE2 /50 ul supernatant
calculated PGE2 produced/10^5 BUD-8 cells ([3]; 750 ug/ml): 82 pg per 10^5 cells
inhibition at 1 µg/mL ([3]; Homo sapiens, Fibroblast, 18 h, 1 ug/ml, read-out: % Effect on PGE2 production): 51%
inhibition at 10 µg/mL ([3]; Homo sapiens, Fibroblast, 18 h, 10 ug/ml, read-out: % Effect on PGE2 production): 52%
inhibition at 25 µg/mL ([3]; Homo sapiens, Fibroblast, 18 h, 25 ug/ml, read-out: % Effect on PGE2 production): 52%
inhibition at 100 µg/mL ([3]; Homo sapiens, Fibroblast, 18 h, 100 ug/ml, read-out: % Effect on PGE2 production): 59%
inhibition at 300 µg/mL ([3]; Homo sapiens, Fibroblast, 18 h, 300 ug/ml, read-out: % Effect on PGE2 production): 67%
inhibition at 750 µg/mL ([3]; Homo sapiens, Fibroblast, 18 h, 750 ug/ml, read-out: % Effect on PGE2 production): 65%
